For this data set the following is noted: for aqueous solubility: pH 6.8.

The structures appear in SMILES notation. Values after ≈ are worked out from the molar mass of the structure shown. Some results are limits rather than exact numbers.

As a reminder, the aqueous solubility is the dissolved amount per volume that the medium holds. A high value points to a readily soluble substance. For `Cc1cc(C)n2ncc(C(=O)Nc3cccc(C(=O)O)c3)c2n1`, the MDR1-MDCK efflux ratio was determined as 0.709; the intrinsic clearance, human liver microsomes was not above 4.74 mL/min/kg; the intrinsic clearance, rat liver microsomes is not above 10.7 mL/min/kg; the aqueous solubility came to 17.6 µg/mL (≈ 56.7 µM).

As to `O=C(Nc1cccc2cnccc12)c1cccc(F)c1`, the intrinsic clearance, human liver microsomes was found to be 34.9 mL/min/kg; the intrinsic clearance, rat liver microsomes was 132 mL/min/kg; the aqueous solubility was 47.6 µg/mL (≈ 179 µM).

For the compound `Cc1ccc(CNc2cncc(-n3nc(C)cc3C)n2)cn1`, the intrinsic clearance, human liver microsomes worked out at 23.4 mL/min/kg and the intrinsic clearance, rat liver microsomes was 252 mL/min/kg.

Turning to `COc1ccc(OC)c(N/C=C2\C(=O)Oc3ccccc3C2=O)c1`, the aqueous solubility was found to be 0.7 µg/mL (≈ 2.15 µM).

Take `O=C(Cn1cc(NCc2cccc(Cl)c2)cn1)N1CCOCC1`: the MDR1-MDCK efflux ratio was found to be 4.24; the intrinsic clearance, human liver microsomes came to 5.9 mL/min/kg; the intrinsic clearance, rat liver microsomes amounted to 71.9 mL/min/kg.

Take `Cc1cccc(NC(=O)CN(C)c2ncccc2F)n1`: the MDR1-MDCK efflux ratio stood at 0.657; the intrinsic clearance, human liver microsomes was 16.2 mL/min/kg; the intrinsic clearance, rat liver microsomes was found to be 404 mL/min/kg; the aqueous solubility was found to be 36.8 µg/mL (≈ 134 µM).

Turning to `Cc1ccc(S(=O)(=O)Nc2ccccc2-c2nc3ccccc3[nH]2)cc1`, the intrinsic clearance, human liver microsomes is 122 mL/min/kg and the intrinsic clearance, rat liver microsomes is 541 mL/min/kg.

`Cc1nc(-c2ccccc2)c(C(=O)Nc2ccc(Cl)c(C(F)(F)F)c2)s1`: the MDR1-MDCK efflux ratio is 0.723 and the aqueous solubility amounted to 0.42 µg/mL (≈ 1.06 µM).

On to `CCN1CCc2nc(NC(=O)Cc3ccc(Cl)cc3)sc2C1`, for which the MDR1-MDCK efflux ratio is 1.02; the intrinsic clearance, human liver microsomes came to 11.6 mL/min/kg; the intrinsic clearance, rat liver microsomes was not above 10.7 mL/min/kg; the aqueous solubility came to 46.6 µg/mL (≈ 139 µM).

`Cc1cc(CNC(=O)N(C)Cc2c(C)nn(C)c2C)cnc1C`: the MDR1-MDCK efflux ratio worked out at 94.1; the intrinsic clearance, human liver microsomes was not above 4.74 mL/min/kg; the intrinsic clearance, rat liver microsomes was 112 mL/min/kg.

`Brc1cnc2ccccc2c1` yielded an aqueous solubility of 0.925 µg/mL (≈ 4.45 µM).

Compound `Nc1nc(N2CCN(CC3CCCC3)C(=O)C2)cc(-n2cccn2)n1` showed an intrinsic clearance, human liver microsomes of 47.2 mL/min/kg and an intrinsic clearance, rat liver microsomes of 1150 mL/min/kg.

As for `CS(=O)(=O)NCCN1CCc2c(Cl)cc(Cl)cc2C1`, the MDR1-MDCK efflux ratio worked out at 0.707; the intrinsic clearance, human liver microsomes amounted to 14.3 mL/min/kg; the intrinsic clearance, rat liver microsomes came to 400 mL/min/kg.

As to `COC(=O)c1cccc2c1CCCN2C(=O)c1ccccc1`, the MDR1-MDCK efflux ratio was determined as 0.474; the intrinsic clearance, human liver microsomes came to 780 mL/min/kg; the intrinsic clearance, rat liver microsomes stood at 2050 mL/min/kg.

As for `OC1(Cc2nc(-c3ccsc3)no2)CCCCC1`, the MDR1-MDCK efflux ratio came to 0.564; the intrinsic clearance, human liver microsomes was found to be 20.5 mL/min/kg; the intrinsic clearance, rat liver microsomes was 1040 mL/min/kg.

As to `COc1cc(OCc2ccccn2)ccc1/C=C/c1cc(/C=C/c2ccc3cc[nH]c3c2)[nH]n1`, the aqueous solubility was 0.61 µg/mL (≈ 1.36 µM).

In the case of `Fc1ccccc1-c1noc(-c2ccc(NCCc3cnccn3)nc2)n1`, the MDR1-MDCK efflux ratio is 0.142; the intrinsic clearance, human liver microsomes stood at 10.2 mL/min/kg; the intrinsic clearance, rat liver microsomes turned out to be 749 mL/min/kg; the aqueous solubility amounted to 5.51 µg/mL (≈ 15.2 µM).

Consider `CCCn1cc(CNC(=O)CN2CCCC2)cn1`, for which the intrinsic clearance, human liver microsomes is not above 4.74 mL/min/kg and the intrinsic clearance, rat liver microsomes is 253 mL/min/kg.

Take `CS(=O)(=O)N1CCc2cc(C(=O)NCCOc3ccc4ccccc4c3)ccc21`: the MDR1-MDCK efflux ratio is 1.68 and the aqueous solubility stood at 0.44 µg/mL (≈ 1.07 µM).

As for `O=C(c1ccncc1)N1CCC(c2cnccn2)CC1`, the MDR1-MDCK efflux ratio worked out at 2.71; the intrinsic clearance, human liver microsomes was not above 4.74 mL/min/kg; the intrinsic clearance, rat liver microsomes is not above 10.7 mL/min/kg; the aqueous solubility came out at 61.2 µg/mL (≈ 228 µM).

`c1ccc2[nH]c(SCc3cn4ccccc4n3)nc2c1` gave an intrinsic clearance, human liver microsomes of 86.2 mL/min/kg; an intrinsic clearance, rat liver microsomes of 462 mL/min/kg; an aqueous solubility of 44.9 µg/mL (≈ 160 µM).

With `CC1(C)CN(C(=O)C2(C(=O)N3CC(C)(C)C3(C)C)CCC2)C1(C)C`, the MDR1-MDCK efflux ratio turned out to be 2.4; the intrinsic clearance, human liver microsomes came out at 304 mL/min/kg; the intrinsic clearance, rat liver microsomes was found to be 1210 mL/min/kg; the aqueous solubility came to 75 µg/mL (≈ 224 µM).

Turning to `Cc1ccnc(NCc2cccnc2)n1`, the MDR1-MDCK efflux ratio amounted to 0.596; the intrinsic clearance, human liver microsomes was not above 4.74 mL/min/kg; the intrinsic clearance, rat liver microsomes turned out to be 16.5 mL/min/kg.

`Cc1noc(C)c1CC(=O)N1CCc2[nH]c3ccc(Br)cc3c2C1`: the MDR1-MDCK efflux ratio was determined as 5.07; the intrinsic clearance, human liver microsomes is 166 mL/min/kg; the intrinsic clearance, rat liver microsomes was 497 mL/min/kg; the aqueous solubility turned out to be 1.29 µg/mL (≈ 3.32 µM).

Turning to `O=S(=O)(N1CCOCC1)N1CCN(Cc2ccccc2F)CC1`, the MDR1-MDCK efflux ratio came to 0.958; the intrinsic clearance, human liver microsomes came out at 21 mL/min/kg; the intrinsic clearance, rat liver microsomes was found to be 676 mL/min/kg; the aqueous solubility came to 36 µg/mL (≈ 105 µM).

Turning to `Cc1ccc2c(CC(=O)NCc3cccs3)coc2c1`, the MDR1-MDCK efflux ratio worked out at 0.547; the intrinsic clearance, human liver microsomes was found to be 122 mL/min/kg; the intrinsic clearance, rat liver microsomes turned out to be 2520 mL/min/kg; the aqueous solubility was found to be 6.12 µg/mL (≈ 21.4 µM).

With `Cc1cc(C(=O)NC(C)(C)C#N)nn1-c1ccc(F)cc1`, the MDR1-MDCK efflux ratio turned out to be 1.35; the intrinsic clearance, human liver microsomes was not above 4.74 mL/min/kg; the intrinsic clearance, rat liver microsomes came to 19.7 mL/min/kg.

Turning to `Cn1ccc(NC(=O)c2cc(-c3ccncc3)nc3ccccc23)n1`, the intrinsic clearance, human liver microsomes stood at 21.4 mL/min/kg; the intrinsic clearance, rat liver microsomes stood at 65.7 mL/min/kg; the aqueous solubility worked out at 31.5 µg/mL (≈ 95.6 µM).

The compound `CC(=O)Nc1ccc(S(=O)(=O)NC2=NCN(Cc3ccccc3)CN2)cc1` had an intrinsic clearance, human liver microsomes not above 4.74 mL/min/kg; an intrinsic clearance, rat liver microsomes not above 10.7 mL/min/kg; an aqueous solubility of 61 µg/mL (≈ 157 µM).

As to `O=C(NCCc1cnn[nH]1)C1Cc2ccccc2C1`, the MDR1-MDCK efflux ratio was 2.47; the intrinsic clearance, human liver microsomes was not above 4.74 mL/min/kg; the intrinsic clearance, rat liver microsomes is not above 10.7 mL/min/kg.

For `COc1ccc2nc(NCc3cnn(C)c3)ccc2c1`, the MDR1-MDCK efflux ratio was 0.532; the intrinsic clearance, human liver microsomes was 28.5 mL/min/kg; the intrinsic clearance, rat liver microsomes was 88.6 mL/min/kg; the aqueous solubility turned out to be 34.8 µg/mL (≈ 130 µM).

For the compound `O=c1c2cccnc2ncn1Cc1ccc2c(c1)CCCC2`, the MDR1-MDCK efflux ratio worked out at 0.68; the intrinsic clearance, human liver microsomes was 25.8 mL/min/kg; the intrinsic clearance, rat liver microsomes was 711 mL/min/kg.

In the case of `CCCn1ncc(CN2CCC(c3cc4cccnc4[nH]3)CC2)c1C`, the MDR1-MDCK efflux ratio amounted to 8.86; the intrinsic clearance, human liver microsomes is 41.8 mL/min/kg; the intrinsic clearance, rat liver microsomes amounted to 201 mL/min/kg.

For the compound `CC(C)(C=C(C#N)C(=O)N1CCC[C@@H](n2nc(-c3ccc(Oc4ccccc4)cc3F)c3c(N)ncnc32)C1)N1CCN(C2COC2)CC1`, the MDR1-MDCK efflux ratio came to 35.9; the fraction unbound, human plasma is 0.0189; the fraction unbound, rat plasma turned out to be 0.0133; the intrinsic clearance, human liver microsomes came out at 535 mL/min/kg. The intrinsic clearance, rat liver microsomes came out at 1140 mL/min/kg and the aqueous solubility amounted to 35.8 µg/mL (≈ 53.7 µM).

For `c1cnc(NCc2cnc3ccsc3c2)nc1`, the MDR1-MDCK efflux ratio was determined as 0.589; the intrinsic clearance, human liver microsomes was determined as 12.5 mL/min/kg; the intrinsic clearance, rat liver microsomes is 52.9 mL/min/kg.

The values are drawn from the Biogen ADME set (Fang et al. 2023).
